Measured values published in patent EP1200406B1, “CYCLIC AMIDES AND IMIDES HAVING SELECTIVE ANTAGONIST ACTIVITY AT ALPHA-1D ADRENERGIC RECEPTOR” (RECORDATI INDUSTRIA CHIMICA E FARMACEUTICA S.p.a., priority 1999, dated 2001).

These compounds were tested against T1, human recombinant α1b adrenoceptor (Homo sapiens, UniProt P35368) (assay: Radioligand binding ([3H]prazosin) on membranes of CHO cells expressing cloned α1b adrenoceptor). Conditions: human cloned receptor, CHO cell membranes, 0.2 nM [3H]prazosin; read-out: Affinity (Ki) α1b.
T1 construct: expressed in transfected cells; host or cells: CHO cells (membranes)
T1 sequence (P35368 1-520): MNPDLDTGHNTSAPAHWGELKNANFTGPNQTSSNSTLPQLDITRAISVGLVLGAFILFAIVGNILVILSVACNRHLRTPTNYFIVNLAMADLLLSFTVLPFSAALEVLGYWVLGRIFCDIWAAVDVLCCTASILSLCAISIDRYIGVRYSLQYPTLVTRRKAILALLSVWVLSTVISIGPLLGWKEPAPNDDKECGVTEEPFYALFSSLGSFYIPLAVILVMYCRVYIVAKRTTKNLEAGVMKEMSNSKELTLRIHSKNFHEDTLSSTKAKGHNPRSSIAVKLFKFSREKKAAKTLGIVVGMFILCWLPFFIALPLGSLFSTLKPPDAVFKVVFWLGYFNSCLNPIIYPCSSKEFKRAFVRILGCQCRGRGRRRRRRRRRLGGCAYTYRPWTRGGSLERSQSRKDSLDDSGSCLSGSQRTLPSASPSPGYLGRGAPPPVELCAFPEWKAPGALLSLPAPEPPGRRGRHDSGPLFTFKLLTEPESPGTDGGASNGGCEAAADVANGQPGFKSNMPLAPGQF
Method: The determination of affinity for cloned subtypes of human α1 adrenergic receptors was performed in membranes from CHO cells (chinese hamster ovary cells) transfected by electroporation with DNA expressing the genes encoding each α1-adrenoceptor subtype, namely α1a, α1b and α1d.. Cloning and stable expression of the human α1-adrenoceptor gene were performed as previously described (Testa et al., Pharmacol. Comm. 6, 79-86 (1995)). CHO cell membranes were incubated in […] Tris pH 7.4 with 0.2 nM [^3H]prazosin, in a final volume of 1.02 ml for 30 minutes at 25°C, in the absence or presence of competing drugs (1 pM-10 µM). Non-specific binding was determined in the presence of 10 µM phentolamine. Incubation was stopped by addition of ice-cold Tris buffer and rapid filtration through 0.2% polyethyleneimine pretreated Schleicher & Schuell GF52 filters. Genomic clone G-21 coding for the human 5-HT1A-serotoninergic receptor was stably transfected in a human cell line (HeLa) (Fargin et al., J. Biol. Chem. 284, 14848-14852 (1989)). The HeLa cells were grown as monolayers in Dulbecco's modified Eagle's medium (DMEM), supplemented with 10% foetal calf serum and gentamicin (100 µg/ml), 5% CO2, at 37°C. The cells were detached from the growth flask at 95% confluence by a cell scraper and were lysed in ice-cold 5 mM Tris and 5-mM EDTA buffer (pH 7.4). The homogenates were centrifuged at 40000 x g x 20 minutes and the membranes were re-suspended in a small volume of ice-cold 5 mM Tris and 5-mM EDTA buffer (pH 7.4) and immediately frozen and stored at -70°C until use. On the experiment day, the cell membranes were re-suspended in a buffer containing 50 mM Tris (pH 7.4), 2.5 mM MgCl2, 10 µM pargyline (Fargin et al., Nature 335, 358-360 (1988)). […] The incubation was stopped by addition of ice-cold Tris buffer and rapid filtration through 0.2%-polyethyleneimine-pretreated Schleicher & Schuell filters. The inhibition of specific binding of the radioligands by the drugs was analysed to estimate the IC50 value by using the non-linear curve-fitting programme Allfit (De Lean et al., Am. J. Physiol. 235, E97-E102 (1978)). The IC50 value was converted to an affinity constant (Ki) by the equation of Cheng & Prusoff (Biochem. Pharmacol. 22, 3099-3108 (1973)). Data were expressed as mean of Ki.

SMILES | Ki
O=C1CC2(CCCC2)CC(=O)N1CCN1CCN(c2cc(Cl)ccc2Cl)CC1 [Example 1, 8-{2-[4-(2,5-Dichlorophenyl)-1-piperazinyl]-ethyl}-8-azaspiro[4.5]decane-7,9-dione] | 9.9 nM
O=C1CC2(CCC2)CC(=O)N1CCN1CCN(c2cc(Cl)ccc2Cl)CC1 [Example 15, 7-{2-[4-(2,5-Dichlorophenyl)-1-piperazinyl]-ethyl}-7-azaspiro[3.5]nonane-6,8-dione] | 79.6 nM
O=C1CC2(CCCC2)CC(=O)N1CCN1CCC(c2cc(Cl)ccc2Cl)CC1 [Example 17, 8-{2-[4-(2,5-Dichlorophenyl)-1-piperidinyl]-ethyl}-8-azaspiro[4.5]decane-7,9-dione] | 37.6 nM
Cc1ccc(F)c(N2CCN(CCN3C(=O)CC4(CCCC4)CC3=O)CC2)c1 [Example 4, 8-{2-[4-(2-Fluoro-5-methylphenyl)-1-piperazinyl]-ethyl}-8-azaspiro[4.5]decane-7,9-dione] | 119 nM
O=C1CC2(CCCCC2)CC(=O)N1CCN1CCN(c2cc(Cl)ccc2Cl)CC1 [Example 11, 3-{2-[4-(2,5-Dichlorophenyl)-1-piperazinyl]-ethyl}-3-azaspiro[5.5]undecane-2,4-dione] | 52.9 nM
Cc1ccc(C)c(N2CCN(CCN3C(=O)CC4(CCCC4)CC3=O)CC2)c1 [Example 5, 8-{2-[4-(2,5-Dimethylphenyl)-1-piperazinyl]-ethyl}-8-azaspiro[4.5]decane-7,9-dione] | 168 nM
O=C1CC2(CCCC2)CC(=O)N1CCN1CCN(c2cc(Br)ccc2Br)CC1 [Example 7, 8-{2-[4-(2,5-Dibromophenyl)-1-piperazinyl]-ethyl}-8-azaspiro[4.5]decane-7,9-dione] | 47.5 nM
O=C1CC2(CCCC2)CC(=O)N1CCN1CCN(c2cc(C(F)(F)F)ccc2F)CC1 [Example 6, 8-{2-[4-(2-Fluoro-5-trifluoromethylphenyl)-1-piperazinyl]-ethyl}-8-azaspiro[4.5]decane-7,9-dione] | > 1000 nM
CCC1(C)CC(=O)N(CCN2CCN(c3cc(Cl)ccc3Cl)CC2)C(=O)C1 [Example 13, 1-{2-[4-(2,5-Dichlorophenyl)-1-piperazinyl]-ethyl}-4-ethyl-4-methylpiperidinyl-2,6-dione] | 43.4 nM
O=C1CC2(CCCC2)CC(=O)N1CCN1CCN(c2cc(F)ccc2Cl)CC1 [Example 9, 8-{2-[4-(2-Chloro-5-fluorophenyl)-1-piperazinyl]-ethyl}-8-azaspiro[4.5]decane-7,9-dione] | 10.1 nM
O=C1CC2(CCCC2)CC(=O)N1CCN1CCN(c2cc(I)ccc2Cl)CC1 [Example 10, 8-{2-[4-(2-Chloro-5-iodophenyl)-1-piperazinyl]-ethyl}-8-azaspiro[4.5]decane-7,9-dione] | 448 nM
O=C1CC2(CCCC2)C(=O)N1CCN1CCN(c2cc(Cl)ccc2Cl)CC1 [Example 14, 2-{2-[4-(2,5-Dichlorophenyl)-1-piperazinyl]-ethyl}-2-azaspiro[4.4]nonane-1,3-dione] | 83.6 nM
O=C1CCCC(=O)N1CCN1CCN(c2cc(Cl)ccc2Cl)CC1 [Example 2, 1-{2-[4-(2,5-Dichlorophenyl)-1-piperazinyl]-ethyl}-piperidinyl-2,6-dione] | 54.1 nM
CN(CCN1C(=O)CC2(CCCC2)CC1=O)CCN(C)c1cc(Cl)ccc1Cl [Example 18, N-(2,5-Dichlorophenyl)-N'-{2-(7,9-dioxo-8-azaspiro[4.5]decane-8-yl)-ethyl}-N,N'-dimethyl-1,2-diaminoethane] | 915 nM
O=C1CC2(CCCC2)CCN1CCN1CCN(c2cc(F)c(F)cc2F)CC1 [Example 24, 8-{2-[4-(2,4,5-Trifluorophenyl)-1-piperazinyl]-ethyl}-8-azaspiro[4.5]decane-7-one] | 22.7 nM
N#Cc1ccc(Cl)cc1N1CCN(CCN2C(=O)CC3(CCCC3)CC2=O)CC1 [Example 8, 8-{2-[4-(5-Chloro-2-cyanophenyl)-1-piperazinyl]-ethyl}-8-azaspiro[4.5]decane-7,9-dione] | 17 nM
O=C1CC2(C=CN1CCN1CCN(c3cc(Cl)ccc3Cl)CC1)CCCC2 [Example 20, 8-{2-[4-(2,5-Dichlorophenyl)-1-piperazinyl]-ethyl}-8-azaspiro[4.5]dec-9,10-en-7-one] | 15.8 nM
CC(CN1CCN(c2cc(Cl)ccc2Cl)CC1)N1C(=O)CC2(CCCC2)CC1=O (stereo not drawn) [Example 16, 8-{2-[4-(2,5-Dichlorophenyl)-1-piperazinyl]-1-methylethyl}-8-azaspiro[4.5]decane-7,9-dione] | 13.1 nM
